Converted amounts (≈) assume the structure as drawn. The source made the active and inactive calls. The calls are words filed in the database; no cut-off is given here.
Columns and labels:
[1] = Metabolic stability in human liver microsomes after 0.5 hrs; assay type: ADME, microsome; settings: read-out: Stability
[2] = Cmax in Zucker diabetic fatty rat at 3 mg/kg, po dosed once daily for 14 days and followed by additional administration on day 15; assay type: ADME, organism-based; design: dose 3 mg/kg, route oral; settings: in vivo
[3] = Apparent permeability of the compound after 4 hrs by PAMPA; assay type: ADME
Rattus norvegicus [4] = experiment: Toxicity in Zucker diabetic fatty rat assessed as body weight gain at 3 mg/kg, po administered once daily for 14 days relative to control; assay type: organism-based; settings: in vivo, 336 h
[5] = AUC (0 to 24 hrs) in Zucker diabetic fatty rat at 3 mg/kg, po dosed once daily for 14 days and followed by additional administration on day 15; assay type: ADME, organism-based; design: time < 24 hr, dose 3 mg/kg, route oral; settings: in vivo
[6] = target: T1, Peroxisome proliferator-activated receptor gamma (Homo sapiens) (UniProt P37231); experiment: Agonist activity at recombinant human GAL4-DBD fused PPARgamma LBD expressed in COS7 cells at 10 uM after 24 hrs by luciferase reporter gene assay relative to rosiglitazone; assay type: cell-based
T1 sequence (whole entry): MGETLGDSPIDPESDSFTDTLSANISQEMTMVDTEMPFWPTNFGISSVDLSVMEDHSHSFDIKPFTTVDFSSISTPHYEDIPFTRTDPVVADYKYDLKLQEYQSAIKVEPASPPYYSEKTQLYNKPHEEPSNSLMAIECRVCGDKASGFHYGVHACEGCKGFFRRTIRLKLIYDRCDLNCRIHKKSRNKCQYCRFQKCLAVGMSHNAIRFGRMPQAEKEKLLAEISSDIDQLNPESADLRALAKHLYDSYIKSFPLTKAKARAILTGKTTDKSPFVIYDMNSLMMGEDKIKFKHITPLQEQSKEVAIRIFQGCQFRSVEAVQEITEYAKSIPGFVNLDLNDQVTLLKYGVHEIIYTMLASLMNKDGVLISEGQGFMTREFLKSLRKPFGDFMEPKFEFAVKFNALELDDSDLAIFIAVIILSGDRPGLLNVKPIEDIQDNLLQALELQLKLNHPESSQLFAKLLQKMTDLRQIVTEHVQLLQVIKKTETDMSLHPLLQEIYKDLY

[7] = Tmax in Zucker diabetic fatty rat at 3 mg/kg, po dosed once daily for 14 days and followed by additional administration on day 15; assay type: ADME, organism-based; settings: in vivo
[8] = target: T2, Peroxisome proliferator-activated receptor gamma (Homo sapiens, UniProt P37231); experiment: Agonist activity at recombinant human GAL4-DBD fused PPARgamma LBD expressed in COS7 cells after 24 hrs by luciferase reporter gene assay; assay type: cell-based
T2 sequence (P37231 whole entry): T1 sequence (whole entry)

Rattus norvegicus [9] = experiment: Antidiabetic activity in Zucker diabetic fatty rat assessed as reduction in plasma glucose level at 3 mg/kg, po administered once daily for 14 days measured on day 15 relative to control; assay type: functional; design: scale not given: the % may be the effect or the level left
[10] = Aqueous thermodynamic solubility of the compound in pH 6.8 solution up to 4 hrs by HPLC-UV analysis; assay type: physicochemical; settings: read-out: Therm_solubility
[11] = 1-octanol/PBS distribution co-efficient, log D of the compound at […] at pH 7.4 after 30 mins by HPLC-MS/MS method; assay type: physicochemical
[12] = target: T3, Peroxisome proliferator-activated receptor alpha (Homo sapiens, UniProt Q07869); experiment: Agonist activity at recombinant human GAL4-DBD fused PPARalpha LBD expressed in COS7 cells after 24 hrs by luciferase reporter gene assay; assay type: cell-based
T3 sequence (Q07869 whole entry): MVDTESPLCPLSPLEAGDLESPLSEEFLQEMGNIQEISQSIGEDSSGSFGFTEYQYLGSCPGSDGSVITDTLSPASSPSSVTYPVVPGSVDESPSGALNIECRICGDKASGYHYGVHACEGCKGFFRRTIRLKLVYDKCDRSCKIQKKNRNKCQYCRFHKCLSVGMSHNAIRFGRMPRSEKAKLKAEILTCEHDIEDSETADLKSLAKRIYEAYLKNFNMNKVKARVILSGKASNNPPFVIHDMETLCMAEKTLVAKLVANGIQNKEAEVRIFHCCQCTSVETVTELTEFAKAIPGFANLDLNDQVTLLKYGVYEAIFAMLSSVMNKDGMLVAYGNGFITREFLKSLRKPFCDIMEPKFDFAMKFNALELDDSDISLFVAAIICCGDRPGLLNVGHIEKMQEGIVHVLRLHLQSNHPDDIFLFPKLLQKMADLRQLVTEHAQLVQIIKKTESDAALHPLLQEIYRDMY

[13] = target: T4, Peroxisome proliferator-activated receptor alpha (Homo sapiens) (UniProt Q07869); experiment: Agonist activity at recombinant human GAL4-DBD fused PPARalpha LBD expressed in COS7 cells at 10 uM after 24 hrs by luciferase reporter gene assay relative to 2-(4-tert-Butylphenoxy)-3-[4-[2-[(4-pyridin-2-ylbenzoyl)amino]ethoxy] phenyl]propionic acid; assay type: cell-based
T4 sequence (whole entry): T3 sequence (Q07869 whole entry)

[14] = Metabolic stability in rat liver microsomes after 0.5 hrs; assay type: ADME, microsome; settings: read-out: Stability
[15] = target: T5, Peroxisome proliferator-activated receptor delta (Homo sapiens) (UniProt Q03181); experiment: Agonist activity at PPARdelta (unknown origin) at 10 uM
T5 sequence (whole entry): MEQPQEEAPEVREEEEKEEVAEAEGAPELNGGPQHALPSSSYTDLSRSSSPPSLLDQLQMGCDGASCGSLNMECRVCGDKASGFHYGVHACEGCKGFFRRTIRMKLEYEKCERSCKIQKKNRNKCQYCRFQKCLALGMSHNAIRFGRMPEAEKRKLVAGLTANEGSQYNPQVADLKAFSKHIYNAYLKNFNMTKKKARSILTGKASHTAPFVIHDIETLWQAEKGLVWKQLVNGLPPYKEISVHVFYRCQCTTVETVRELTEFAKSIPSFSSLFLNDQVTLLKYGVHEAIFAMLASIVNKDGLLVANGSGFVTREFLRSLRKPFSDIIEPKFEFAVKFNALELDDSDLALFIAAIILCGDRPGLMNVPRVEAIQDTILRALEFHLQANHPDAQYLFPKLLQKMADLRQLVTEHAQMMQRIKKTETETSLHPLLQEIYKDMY

[16] = Oral bioavailability in cynomolgus monkey at 3 mg/kg by LC-MS/MS; assay type: ADME, organism-based, Macaca fascicularis; settings: in vivo
[17] = Metabolic stability in cynomolgus monkey liver microsomes after 0.5 hrs; assay type: ADME, Macaca fascicularis, microsome; settings: read-out: Stability
[18] = Clearance in cynomolgus monkey at 1 mg/kg, iv by LC-MS/MS; assay type: ADME, organism-based, Macaca fascicularis; settings: in vivo
Hepatocyte [19] = experiment: Cytotoxicity against F344/DuCrlCrlj rat primary hepatocytes assessed as reduction in mitochondrial enzyme activity at 10 to 100 uM after 24 hrs by WST8 assay; assay type: cell-based
Hepatocyte [20] = experiment: Cytotoxicity against F344/DuCrlCrlj rat primary hepatocytes assessed as reduction in cell viability at 10 to 100 uM after 24 hrs by LDH release assay; assay type: cell-based
[21] = AUClast in cynomolgus monkey at 3 mg/kg, po by LC-MS/MS; assay type: ADME, organism-based, Macaca fascicularis; design: dose 3 mg/kg, time 0 - last, route oral; settings: in vivo
[22] = Volume of distribution at steady state in cynomolgus monkey at 1 mg/kg, iv by LC-MS/MS; assay type: ADME, organism-based, Macaca fascicularis; settings: in vivo, read-out: Vdss
[23] = Half life in cynomolgus monkey at 3 mg/kg, po by LC-MS/MS; assay type: ADME, organism-based, Macaca fascicularis; settings: in vivo
[24] = Cmax in cynomolgus monkey at 3 mg/kg, po by LC-MS/MS; assay type: ADME, organism-based, Macaca fascicularis; design: dose 3 mg/kg, route oral; settings: in vivo
[25] = Tmax in cynomolgus monkey at 3 mg/kg, po by LC-MS/MS; assay type: ADME, organism-based, Macaca fascicularis; settings: in vivo

SMILES | remaining at 0.5 h [1] | Cmax [2] | Papp at 4 h [3] | Activity (Rattus norvegicus [4]) | AUC at 24 h [5] | Emax [6] | Tmax [7] | EC50 [8] | Activity (Rattus norvegicus [9]) | solubility thermodynamic at 4 h [10] | logD at 0.5 h [11] | EC50 [12] | Emax [13] | remaining at 0.5 h [14] | Activity [15] | further results
Cc1cc(Cl)cnc1Oc1ccc2nc(COc3cccc(C(=O)O)c3)n(C)c2c1 | 85% | 0.12 µg/mL | 137 nm/s | 18.5% | 1.25 µg·h/mL | 92% | 2.4 h | 0.021 µM | 54.1% | 0.0039 mg/mL (≈ 9.2 µM) | 1.8 | > 10 µM | 7% | 81% | – | –
Cn1c(COc2cccc(C(=O)O)c2)nc2cnc(Oc3ccc4c(c3)CCC4)cc21 | 100% | 0.41 µg/mL | 165 nm/s | 6.3% | 2.41 µg·h/mL | 55% | 2 h | 0.02 µM | 1.3% | 0.07 mg/mL (≈ 168 µM) | 1.6 | > 10 µM | 22% | 81% | inactive | –
Cn1c(COc2cccc(C(=O)O)c2)nc2ccc(Oc3ccc(Cl)cn3)cc21 | 100% | 0.066 µg/mL | 162 nm/s | 0.2% | 1.01 µg·h/mL | 66% | 4.4 h | 0.071 µM | 14.8% | 0.017 mg/mL (≈ 41.5 µM) | 1.2 | > 10 µM | 3% | 100% | – | –
Cc1ccc(Oc2ccc3nc(COc4cccc(C(=O)O)c4)n(C)c3n2)cc1 | – | 0.51 µg/mL | 126 nm/s | 6.8% | 2.52 µg·h/mL | 58% | 2 h | 0.045 µM | 37.6% | 0.033 mg/mL (≈ 84.7 µM) | 1.7 | > 10 µM | 38% | 100% | inactive | –
Cn1c(COc2cccc(C(=O)O)c2)nc2ccc(Oc3ncc(Cl)cc3F)cc21 | 90% | 0.45 µg/mL | 118 nm/s | 13.8% | 3.91 µg·h/mL | 79% | 2 h | – | 70.6% | 0.01 mg/mL (≈ 23.4 µM) | 1.3 | > 10 µM | 5% | 87% | – | bioavailability [16]: 31%; remaining at 0.5 h [17]: 91%; clearance [18]: 0.0996 L/h/kg; Activity (Hepatocyte [19]): Non-Toxic; Activity (Hepatocyte [20]): Non-Toxic; AUC(0-t) [21]: 9.94 µg·h/mL; Vd [22]: 0.5 L/kg; half-life [23]: 8.84 h; Cmax [24]: 1.19 µg/mL; Tmax [25]: 3.25 h
Cc1cnc(Oc2ccc3nc(COc4cccc(C(=O)O)c4)n(C)c3c2)c(C)c1 | – | 0.18 µg/mL | – | – | 2.49 µg·h/mL | – | 3.2 h | – | 57% | – | 1.4 | – | – | 92% | – | bioavailability [16]: 89%; remaining at 0.5 h [17]: 80%; clearance [18]: 0.124 L/h/kg; AUC(0-t) [21]: 23.5 µg·h/mL; Vd [22]: 0.36 L/kg; half-life [23]: 13.5 h; Cmax [24]: 2.25 µg/mL; Tmax [25]: 5 h
Cn1c(COc2cccc(C(=O)O)c2)nc2ccc(Oc3ccc4c(c3)CCC4)nc21 | 76% | 0.6 µg/mL | 315 nm/s | 14% | 4.08 µg·h/mL | 79% | 2 h | 0.025 µM | 70.4% | 0.0043 mg/mL (≈ 10.4 µM) | 2.5 | > 10 µM | 23% | 71% | inactive | –

— ChEMBL document CHEMBL4152362, “Discovery of DS-6930, a potent selective PPARγ modulator. Part II: Lead optimization” (Bioorg Med Chem, 2018)
